Read-outs that look alike come from different tables or passages of the source.
Columns and labels:
[1] = Plasma pharmacokinetics by HPLC-MS/MS; format: in vivo, human; settings: for concentration at 24 h: read-out: Cmin 24h
Method: Plasma samples were collected pre-dose and 1, 2, 4, 6, 8, 10 and 24 h after the dose on C1/D21. PK trough samples (pre-dose; 2 h post-dose) were obtained on day 21 of cycles 2, 4, 6, 8, 10 and 12.

[2] = tested on: pMEK1/2; test: pMEK1/2 in paired skin biopsies, Western blotting/densitometry; format: in vivo, human; settings: dose escalation, cohort 7, 12 and 13, C1D15
Method: (§1) All patients in the dose escalation phase consented to a fresh frozen punch skin biopsy during screening and on C1/D15 (± 7 days). Fresh frozen skin and tumour biopsies during screening and on C1/D15 (± 7 days) were also required for the first 13 patients in the dose expansion phase. PD markers of MEK1/2 inhibition (pMEK1/2; pERK1/2) in skin biopsies and MET inhibition (pSTAT3) in tumour biopsy were assessed by Western blotting (WB), as previously described. Densitometry on WB images was performed using ImageJ software.

[3] = in vivo; cited from earlier work
[4] = tested on: cMET; settings: cited from earlier work
[5] = tested on: pMET^Y1003; test: pMET Y1003 in paired tumour biopsies, Western blotting; format: in vivo, human; settings: one patient with paired biopsy, dose expansion, C1D15
[6] = tested on: pSTAT3^Y705; test: pSTAT3 Y705 in paired tumour biopsies, Western blotting; format: in vivo, human; settings: one patient with paired biopsy, dose expansion, C1D15
Method: as §1

[7] = remark: listed apart in the source
Method: A rolling-six design was employed.
Safety assessments, ophthalmic/cardiac examinations were performed as previously described. […] Anti-tumour activity was conducted at baseline (within 28 days prior to C1/day 1 (D1)) and then every 2 cycles and evaluated by RECIST v1.1.
Safety and efficacy data were summarised using descriptive statistics. Evaluable patients for toxicity were those patients that received at least one dose of one or both drugs. Evaluable patients for MTD or dose escalation were those patients who completed C1 or withdrew early for experiencing a DLT. Response analyses (RECIST v1.1) were performed on an intention-to-treat basis, and any patient who received any dose of study treatment was evaluable for response. PFS was defined as the time between receiving the first dose of study medication to disease progression or death from any cause. OS was defined as the time between C1D1 to death from any cause. PFS and OS were estimated using the Kaplan–Meier method. Statistical significance was calculated from distinct technical replicates by Student’s t-test (2-tailed, 2 sample equal variance on unpaired data), in GraphPad Prism 8. Graphs were plotted as means with error bars represented as SD; statistical significance was denoted as follows: *** = p < 0.001, ** = p < 0.01, * = p < 0.05, ns = p > 0.05.

[8] = patients with advanced solid cancers; cited from earlier work
[9] = Cycle 1, Day 21, Cohort 7: binimetinib 30mg B.D 28d, crizotinib 200mg B.D, n = 7
[10] = Cycle 1, Day 21, Cohort 12: binimetinib 30mg B.D 21d, crizotinib 200mg B.D, n = 5
[11] = Cycle 1, Day 21, Cohort 13: binimetinib 30mg B.D 21d, crizotinib 250mg O.D, n = 6
[12] = Cycle 1, Day 21, Dose expansion phase: binimetinib 30mg B.D 21d, crizotinib 250mg O.D, n = 26
[13] = human, plasma, dose escalation phase, 3 cohorts, oral, read-out: time of peak plasma concentrations after dosing

Row | Structure (SMILES) | AUC0-10h [1, 9] | Cmax [1, 9] | Cmin [1, 9] | Tmax [1, 9] | AUC0-10h [1, 10] | Cmax [1, 10] | Cmin [1, 10] | Tmax [1, 10] | AUC0-10h [1, 11] | Cmax [1, 11] | Cmin [1, 11] | Tmax [1, 11] | AUC0-10h [1, 12] | Cmax [1, 12] | Cmin [1, 12] | Tmax [1, 12] | Tmax [1, 13] [h] | other results
1 | O=C(NOCCO)c1cc2[nH]cnc2c(F)c1Nc1ccc(Br)cc1F [AR0042603] | 203 (112) ng*h/ml (SD) | 25.1 (15.1) ng/ml (SD) | 10.4 (2.66) ng/ml (SD) | 3.03 (1.97) h (SD) | 183 (24.8) ng*h/ml (SD) | 29.5 (8.62) ng/ml (SD) | 10.2 (2.47) ng/ml (SD) | 1.75 (0.5) h (SD) | 121 (28.9) ng*h/ml (SD) | 23.4 (8.04) ng/ml (SD) | 6.95 (1.6) ng/ml (SD) | 1.84 (1.16) h (SD) | 194 (85.2) ng*h/ml (SD) | 22.7 (16.0) ng/ml (SD) | 12.1 (4.8) ng/ml (SD) | 3.15 (1.99) h (SD) | – | –
2 | Cn1cnc2c(F)c(Nc3ccc(Br)cc3F)c(C(=O)NOCCO)cc21 [binimetinib] | 1604 (554) ng*h/ml (SD) | 265 (83.4) ng/ml (SD) | 77.1 (40.3) ng/ml (SD) | 2.26 (2.14) h (SD) | 1780 (706) ng*h/ml (SD) | 386 (189) ng/ml (SD) | 85.8 (51.9) ng/ml (SD) | 1.75 (0.5) h (SD) | 1402 (666) ng*h/ml (SD) | 320 (136) ng/ml (SD) | 64.0 (28.9) ng/ml (SD) | 1.51 (0.54) h (SD) | 2129 (1152) ng*h/ml (SD) | 357 (171) ng/ml (SD) | 103 (58.5) ng/ml (SD) | 2.55 (1.5) h (SD) | 0.98 to 6 | MTD (binimetinib dose in the combination) (days 1–21 every 28 days, with crizotinib 250 mg O.D continuously): 30 mg B.D; pMEK1/2 (catalytically-inactive) in skin biopsies, post- vs pre-treatment [2]: significant accumulation; RP2D [3]: 45 mg B.D; doses achieving plasma concentrations required to inhibit pERK1/2 [3]: ≥ 30 mg B.D
3 | C[C@@H](Oc1cc(-c2cnn(C3CCNCC3)c2)cnc1N)c1c(Cl)ccc(F)c1Cl [crizotinib] | 2481 (980) ng*h/ml (SD) | – | 205 (78.0) ng/ml (SD) | – | 2119 (1341) ng*h/ml (SD) | – | 181 (136) ng/ml (SD) | – | 1467 (410) ng*h/ml (SD) | – | 114 (43.1) ng/ml (SD) | – | 1647 (907) ng*h/ml (SD) | – | 149 (85.3) ng/ml (SD) | – | 0.97 to 6 | MTD (crizotinib dose in the combination) (continuously, with binimetinib 30 mg B.D days 1–21 every 28 days): 250 mg O.D; pre-clinically predicted effective concentration to inhibit cMET [4]: 62 ng/mL; pMET Y1003 levels in tumour during treatment [5]: increased; pSTAT3 Y705 levels in tumour during treatment [6]: decreases; DR-AE determined to be related to the drug ([7]; dose escalation phase, of 210 DR-AE): 164; DR-AE determined to be related to the drug ([7]; dose expansion phase, of 297 DR-AE): 244; maximum-tolerated dose (MTD) of crizotinib with PD- 0325901 [8]: 200 mg B.D; AUC0-24h [1, 11]: 2529 (380) ng*h/ml (SD); AUC0-24h [1, 12]: 3479 (2083) ng*h/ml (SD); median trough plasma concentrations ([1]; cohort 13, crizotinib 250 mg O.D): > 62 ng/mL; concentration at 24 h ([1]; human, plasma, oral, Cycle 1, Day 21, Cohort 13: binimetinib 30mg B.D 21d, crizotinib 250mg O.D, n = 6): 72.6 ng/mL; concentration at 24 h ([1]; human, plasma, oral, Cycle 1, Day 21, Dose expansion phase: binimetinib 30mg B.D 21d, crizotinib 250mg O.D, n = 26): 109 ng/mL

Reference: article PMC11984268 (BMC Cancer, 2025)
